Laboratory results reported in US20210015092A1, “STABILIZATION OF WHOLE BLOOD AT ROOM TEMPERATURE” (Roche Diagnostics Operations, Inc., priority 2014, published 2021).

Tests used:
[1] = tested on: MDA-MB-468 cells; test: Preservation of cellular proteins: anti-CK5/8 immunostaining of MDA-MB-468 cells spiked into blood; assay type: cell-based, human; details: EDTA blood, 48 hours at room temperature; Sivelestat 10 μg/ml, Pefabloc SC 1 mM, SkQ1 100 nM, Mito Q 100 nM, glutathione 3 mM; versus EDTA without additive
Experimental: Preservation of Cellular Proteins Suspended cells of MDA-MB-468, a human breast cancer cell line were spiked into blood samples obtained from healthy individuals to result in 100,000 spiked cells per ml blood. The samples were processed either immediately or after storage at room temperature for 48 hours.
Nucleated cells were enriched by erythrocytes lysis. […] After centrifugation at 200×g for 15 min, the supernatant was removed and the pellet was resuspended in 250 μl of lysis buffer. […] The cells were sedimented by centrifugation at 200×g for 15 min.
For each sample a volume of 50 μl of the cell suspension was spotted on a glass slide and air-dried. The slides were fixed in ice cold acetone for 10 min, washed with PBS twice and immersed in labeling mixture containing anti-cytokeratine K5/K8-FITC labeled antibody diluted 1:50 in PBS (cytokeratine=CK). After an incubation for 30 min in the dark the supernatant was removed. DAPI-containing mounting medium was added, the spots covered with cover slips and after a further incubation for 20 min analyzed on a Zeiss Axio Observer Microscope. The total number of nucleated cells and the CK 5/8 positive cells were analyzed with the Assay Builder Software from Zeiss.
MDA-MB-468 cells were spiked into blood samples obtained from healthy individuals to result in a concentration of 100,000 spiked cells/ml blood. The samples were processed either immediately or after storage at room temperature for 48 hours. […] Sample 3 was additionally supplemented with the mitochondria targeted antioxidant SS-31 (1 μM), sample 4 with glutathione (0.75 mM). Nucleated cells were enriched by erythrocytes lysis and processed as described in Example 1.

[2] = tested on: MDA-MB-468 cells; test: Quantification of RNA from MDA-MB-468 cells isolated after 72 h sample storage; assay type: cell-based, human; details: 72 hours at room temperature, GCK DNA as reference, two donors
Experimental: MDA-MB-468 cells were spiked into blood samples obtained from two healthy individuals at 14.4×10^6 cells/ml. From each donor four samples were prepared. […] Aliquots from these samples were processed immediately after set up, other aliquots were processed after storage at room temperature for 72 hours. MDA-MB-468 cells were isolated from blood by capturing with BreastSelectBeads from Adnagen Cat. No.: T1-508 with 1,000 μl aliquots of sample material according to the protocol recommended by the manufacturer.
The bead captured purified cells were resuspended in 1,000 μl PBS. With 200 μl aliquots RNA was isolated using the MagNA Pure LC DNA Isolation Kit—Large volume Cat No 03310515001 using the Program “DNA LV Blood_20_200” and an elution volume of 100 μl.
The RNA was transcribed into cDNA using Transcriptor First Strand cDNA Synthesis Kit Cat. No: 04897030001 in reactions of 70 μl volume, each reaction containing 12.5 μl of isolated nucleic acid. PCR was peformed with the with the LightCycler 480 Probes Master in a LightCycler 480 instrument in 20 μl reactions containing 5 μl of the cDNA samples. […]
To quantify the changes in expression level of the RNA target tested, the relative quantification method of Livak and Schmittgen was used (Livak K. J. and Schmittgen T. D., Methods 2001, 25(4) 402-408). […]

[3] = tested on: MDA-MB-468 cells; details: blood stored 48 hours at room temperature; cell index for 101 hours
Experimental: MDA-MB-468 cells treated and isolated as described in Example 6 were seeded into the wells of an E-Plate 96-well device (Roche Applied Science, Cat. No. 06472451001, Roche Diagnostics GmbH Mannheim, Germany) for the Real-Time Cell Analyzer (RTCA) MP (xCELLigence system). 50 μl aliquots of cells were seeded into wells containing 50 μl of RPMI medium. Duplicates were used for analysis. The E-Plate was incubated over night at 37° C. in an incubator to allow attachment of MDA-MB-468 cells to the bottom of the E-Plate. In order to remove contaminating blood derived cells the medium was removed and cells attached to the culture plate were washed 3 times with PBS. 150 μl of fresh RPMI medium was added per well and the E-Plate transferred to the Real-Time Cell Analyzer. Cell index was measured once per hour for 101 hours.

[4] = tested on: MDA-MB-468 cells; test: Isolation of viable cells after sample storage for 48 hours, Trypan blue exclusion; assay type: cell-based, human; details: 48 hours at room temperature, two donors
Experimental: MDA-MB-468 cells were spiked into blood samples obtained from healthy individuals to result in a final concentration of 300,000 spiked cells/ml blood. The samples were processed either immediately or after storage at room temperature for 48 hours.
Immediately after sample set up and 48 hours later nucleated cells were enriched by erythrocyte lysis. […] The cells were sedimented by centrifugation at 200×g for 15 min.
From these samples the MDA-MB-468 cells were isolated using CD326 (EpCAM) Microparticles from Miltenyi (Cat No 130-061-101), MS columns and the MACS separator system (Milteny Cat. Nos. 130-042-201, 130-042-102) making use of the protocol recommended by the manufacturer.
The enriched cells were suspended in 300 μl of RPMI medium.
The viability of the cells was tested with the Trypan blue exclusion method. 10 μl of each sample was mixed with 10 μl of Trypan blue (Sigma-Aldrich T8154). The number of MDA-MB-468 cells excluding the dye was counted in a Neubauer chamber. The yield of viable cells was calculated using the cell number spiked into the blood samples as 100%.

Row | SMILES | percentage of MDA-MB-468 cells detected by immunostaining with Anti-CK5/8 (FIG. 1) [1] | further results
1 | Cl.NCCc1ccc(S(=O)(=O)F)cc1 [Pefabloc SC, 4-(2-aminoethyl) benzenesulfonyl fluoride hydrochloride] | higher signals than the control sample without additive | –
2 | O=C(O)CN(CCN(CC(=O)O)CC(=O)O)CC(=O)O [EDTA] | – | change of RNA levels of isolated MDA-MB-468 cells (FIG. 4) [2]: strong decline in RNA levels; cell growth in culture of cells isolated from stored blood (FIG. 5) [3]: not culturable anymore; cell viability after storage, in words [4]: negatively affected
3 | N[C@@H](CCC(=O)N[C@@H](CS)C(=O)NCC(=O)O)C(=O)O [glutathione] | further positive effect | –
4 | CC1=C(C)C(=O)C(CCCCCCCCCC[P+](c2ccccc2)(c2ccccc2)c2ccccc2)=CC1=O [SkQ1, 10-(6′-plastoquinonyl) decyltriphenylphosphonium] | Particular positive effects | –
5 | CC(C)(C)C(=O)Oc1ccc(S(=O)(=O)Nc2ccccc2C(=O)NCC(=O)O)cc1 [Sivelestat] | higher signals than the control sample without additive | –
6 | COC1=C(OC)C(=O)C(CCCCCCCCCC[P+](c2ccccc2)(c2ccccc2)c2ccccc2)=C(C)C1=O [MitoQ, (10-(2,5-dihydroxy-3,4-dimethoxy-6-methylphenyl)decyl) triphenylphosphonium and (10-(4,5-dimethoxy-2-methyl-3,6-dioxocyclohexa-1,4-dienyl)decyl) triphenylphosphonium] | Particular positive effects | –
